# Measurements published in patent US10266569B2 (priority 2014, dated 2019).
# “Also recorded” adds a separate entry of the source.
# Experiments:
# NiV N = NiV N (Nipah virus, UniProt Q9IK92); assay type: cell-based
# [1] = test system: NiV (Malaysian isolate UMMC1); assay type: cell-based, Nipah virus
# [2] = test system: NiV (Malaysian isolate UMMC1); assay type: cell-based, Nipah virus; remark: listed apart in the source
# CDV = assay type: cell-based, canine distemper virus
# NiV N, sequence (Q9IK92 whole entry, looked up): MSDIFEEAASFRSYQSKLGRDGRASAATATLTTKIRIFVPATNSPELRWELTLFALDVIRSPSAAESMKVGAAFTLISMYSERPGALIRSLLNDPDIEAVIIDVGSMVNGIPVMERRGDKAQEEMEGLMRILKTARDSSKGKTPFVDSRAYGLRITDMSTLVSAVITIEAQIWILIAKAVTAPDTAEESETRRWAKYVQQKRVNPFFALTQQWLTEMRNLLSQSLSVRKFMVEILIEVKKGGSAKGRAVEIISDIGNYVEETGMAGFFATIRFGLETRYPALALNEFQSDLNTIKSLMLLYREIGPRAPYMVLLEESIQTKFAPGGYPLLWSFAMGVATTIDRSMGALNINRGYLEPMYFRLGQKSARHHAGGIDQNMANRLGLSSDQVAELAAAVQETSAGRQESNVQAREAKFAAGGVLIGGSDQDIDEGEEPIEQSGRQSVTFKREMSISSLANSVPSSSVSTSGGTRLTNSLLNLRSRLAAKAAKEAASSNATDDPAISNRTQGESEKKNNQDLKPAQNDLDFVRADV
Sequence,colocalization with N in the cell (NiV N),maintenance of N in a soluble form (NiV N),inhibition of NiV viral growth (viral titer in culture supernatant) [1],syncytia formation in NiV-infected cells [1],inhibition of NiV viral growth (virus titer in culture supernatant) [2],dose dependence of inhibition of CDV replication (CDV),inhibition of CDV viral growth (virus titer in culture supernatant) (CDV)
MDKLELVNDGLNIIDFIQKNQKEIQKTYGRSSIQQPSIKD [P40],colocalization of N with P40,sufficient to maintain N in a soluble form,significantly inhibits viral growth in a dose-dependent manner; also recorded: inhibited viral replication; also recorded: able to inhibit the replication of Nipah virus,abolishes syncytia formation,inhibit viral growth,dose-dependant,inhibit viral growth
MAEEQAYHVSKGLECLKALRENPPDIEEIQEVSSLRDQTC [P40-CDV],,,,,,dose-dependant,
